{"source": "paper PMC9011347", "about": "“Small-Molecule Inhibitors Targeting Lipolysis in Human Adipocytes” (Journal of the American Chemical Society, 2022)", "assay_type_in_all_cases": "biochemical", "key": {"mouse ATGL (aa 1–288)": {"target": "T1, mouse ATGL (aa 1–288) (Mus musculus, UniProt Q8BJ56)", "T1 construct": "mouse ATGL (aa 1–288); host or cells: Expi293 cells, crude lysate", "T1 sequence (Q8BJ56 1-288)": "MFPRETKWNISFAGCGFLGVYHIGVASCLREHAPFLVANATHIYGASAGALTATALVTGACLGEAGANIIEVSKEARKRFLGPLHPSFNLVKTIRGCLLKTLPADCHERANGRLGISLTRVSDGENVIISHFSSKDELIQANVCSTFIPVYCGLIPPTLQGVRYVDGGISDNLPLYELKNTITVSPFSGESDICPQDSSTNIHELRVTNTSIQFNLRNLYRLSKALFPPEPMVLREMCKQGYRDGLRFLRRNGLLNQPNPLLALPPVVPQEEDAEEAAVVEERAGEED", "experiment": "TAG hydrolase assay, wild-type and chimeric ATGL variants", "conditions": "wild-type mouse ATGL (aa 1–288)", "description": "(§1) Since experimental three-dimensional (3D) structures for ATGL are currently not available, we utilized chimeric variants of mouse and human ATGL for the identification of binding sites. The constructs c1–c9 (Figure 5a) comprised the N-terminal […] of ATGL, which are sufficient to retain enzymatic activity.[50] In variants c1 and c2, exchange of the N-terminal 158 aa between human and mouse ATGL switched inhibitor reactivity.\n(§2) Figure 5 Analysis of chimeric proteins comprising human and mouse ATGL. (a) Schematic view of the minimal active domain of wild-type and chimeric ATGL variants (c1–c9). Nonidentical aa are indicated in blue and red for mouse and human ATGL, respectively. ATGL variants were expressed in Expi293 cells and TAG hydrolase activity was determined in cell lysates in the presence or absence of NG-497 (10 μM) and Atglistatin (10 μM), respectively. Inhibition of ATGL variants by respective inhibitors (tick mark) and lack of inhibition (cross) is indicated at the right edge. The expression of all ATGL variants was confirmed by Western blotting analysis (Figure S6). […]\n(§3) Expression of recombinant ATGL constructs and preparation of cell lysates. […] Protein concentrations were determined using Bio-Rad protein assay (Bio-Rad 785, Bio-Rad Laboratories, Munich, Germany) using BSA as standard. […]"}, "[1]": {"target": "T2, c1 (human aa 1–158 and mouse aa 159–288) (Homo sapiens, UniProt Q96AD5, L232M/Q250R/R257Q)", "T2 construct": "c1 (human aa 1–158 and mouse aa 159–288); host or cells: Expi293 cells, crude lysate", "T2 sequence (Q96AD5 with tags, fused parts or gaps L232M/Q250R/R257Q)": "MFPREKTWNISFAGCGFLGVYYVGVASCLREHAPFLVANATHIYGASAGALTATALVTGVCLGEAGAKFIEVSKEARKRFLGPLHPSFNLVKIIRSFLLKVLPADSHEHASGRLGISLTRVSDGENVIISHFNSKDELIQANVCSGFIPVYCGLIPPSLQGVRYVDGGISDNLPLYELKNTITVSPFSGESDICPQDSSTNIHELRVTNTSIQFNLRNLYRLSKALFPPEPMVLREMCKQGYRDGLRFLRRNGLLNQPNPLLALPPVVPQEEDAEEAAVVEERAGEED", "experiment": "TAG hydrolase assay, chimeric ATGL variants", "conditions": "chimeric variant c1", "description": "as §1\n(§4) Figure 5 Analysis of chimeric proteins comprising human and mouse ATGL. (a) Schematic view of the minimal active domain of wild-type and chimeric ATGL variants (c1–c9). Nonidentical aa are indicated in blue and red for mouse and human ATGL, respectively. ATGL variants were expressed in Expi293 cells and TAG hydrolase activity was determined in cell lysates in the presence or absence of NG-497 (10 μM) and Atglistatin (10 μM), respectively. Inhibition of ATGL variants by respective inhibitors (tick mark) and lack of inhibition (cross) is indicated at the right edge. The expression of all ATGL variants was confirmed by Western blotting analysis (Figure S6). (b) Dose-dependent inhibition of human ATGL (aa 1–288) and c1 (human aa 1–158 and mouse aa 159–288) by NG-497. (c) Dose-dependent inhibition of mouse ATGL (aa 1–288) and c2 (mouse aa 1–158 and human aa 159–288) by Ai. IC50 values are shown in the insets. Data are presented as relative inhibition of respective DMSO controls and are indicated as mean ± SD. (d) 3D homology model of the minimal active domain of mouse ATGL (M1–L254) depicted as a cartoon. Residues 1–178 are in blue, and residues 179–254 are in gray. S47 and D166 comprising the active site are represented as green sticks. T101, C106, R109, N111, and S133 are colored in orange, A60, N68, I69, T93, C97, and T146 are colored in magenta. TEXT PRINTED IN THE PICTURE: (b) NG-497: IC50 [μM] (human): 1.3±0.1; IC50 [μM] (c1): 1.3±0.1 | (b) Ai: IC50 [μM] (human): n.det.; IC50 [μM] (c1): n.det. | (c) NG-497: IC50 [μM] (mouse): n.det.; IC50 [μM] (c2): n.det. | (c) Ai: IC50 [μM] (mouse): 2.5±0.3; IC50 [μM] (c2): 2.4±0.1 […]\n(§5) Experimental details, materials, and methods\n(§6) Expression of recombinant ATGL constructs and preparation of cell lysates. Expi293 cells were cultivated in Expi293 Expression Medium (GIBCO, Thermo Fisher Scientific, Waltham, USA) at standard conditions (37°C, 5% CO2, 95% humidified atmosphere, 125 rpm). DNA constructs containing ATGL from different species and chimeric ATGL variants in pcDNA3.1(+)myc-His C Vector were obtained from BioCat GmbH (Heidelberg, Germany). […] Protein concentrations were determined using Bio-Rad protein assay (Bio-Rad 785, Bio-Rad Laboratories, Munich, Germany) using BSA as standard. […]"}, "[2]": {"target": "T3, c2 (mouse aa 1–158 and human aa 159–288) (Mus musculus, UniProt Q8BJ56, M232L/Q257R/R250Q)", "T3 construct": "host or cells: Expi293 cells, cell lysate", "T3 sequence (Q8BJ56 with tags, fused parts or gaps M232L/R250Q/Q257R)": "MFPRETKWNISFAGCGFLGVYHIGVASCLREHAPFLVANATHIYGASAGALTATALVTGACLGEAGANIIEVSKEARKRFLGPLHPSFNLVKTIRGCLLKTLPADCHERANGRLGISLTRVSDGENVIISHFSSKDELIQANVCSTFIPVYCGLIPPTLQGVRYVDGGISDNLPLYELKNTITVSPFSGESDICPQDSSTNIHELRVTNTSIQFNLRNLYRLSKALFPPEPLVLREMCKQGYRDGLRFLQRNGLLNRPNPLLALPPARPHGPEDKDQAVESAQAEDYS", "experiment": "TAG hydrolase assay, chimeric ATGL variants", "conditions": "chimeric variant c2", "description": "as §1, §4, §5, §6"}, "human ATGL (aa 1–288)": {"target": "T4, human ATGL (aa 1–288) (Homo sapiens, UniProt Q96AD5)", "T4 construct": "human ATGL (aa 1–288); host or cells: Expi293 cells, crude lysate", "T4 sequence (Q96AD5 1-288)": "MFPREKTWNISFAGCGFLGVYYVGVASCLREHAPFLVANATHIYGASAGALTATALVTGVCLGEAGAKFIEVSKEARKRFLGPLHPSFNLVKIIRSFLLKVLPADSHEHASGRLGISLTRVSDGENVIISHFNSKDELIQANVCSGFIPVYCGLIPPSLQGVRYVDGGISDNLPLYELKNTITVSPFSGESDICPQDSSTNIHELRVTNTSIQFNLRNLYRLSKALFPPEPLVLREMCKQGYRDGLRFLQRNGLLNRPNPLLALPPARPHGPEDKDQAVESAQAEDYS", "experiment": "TAG hydrolase assay, wild-type and chimeric ATGL variants in Expi293 lysates", "description": "as §1, §2, §3"}}, "note": "Where “and” joins values, the source holds several entries; their conditions need not be identical. Equal values may be shown once. Read-outs that look alike come from different tables or passages of the source."}
{"smiles": "CN(C)C(=O)Nc1cccc(-c2ccc(N(C)C)cc2)c1", "note": "[Atglistatin, reference compound]", "values": [{"measurement": "IC50", "setting": "mouse ATGL (aa 1–288); read-out: IC50", "value": "~2.5 µM and 2.5 µM"}, {"measurement": "IC50", "setting": "[1]", "value": "ineffective"}, {"measurement": "IC50", "setting": "[2]; read-out: IC50", "value": "~2.5 µM and 2.4 µM"}, {"measurement": "IC50", "setting": "human ATGL (aa 1–288)", "value": "ineffective"}]}
{"smiles": "CCOc1ccc(-c2cc(OC)cc(C(=O)OC(C)C)n2)cc1", "note": "[NG-497]", "values": [{"measurement": "IC50", "setting": "mouse ATGL (aa 1–288)", "value": "ineffective"}, {"measurement": "IC50", "setting": "[1]; read-out: IC50", "value": 1.3, "unit": "µM"}, {"measurement": "IC50", "setting": "[2]", "value": "ineffective"}, {"measurement": "IC50", "setting": "human ATGL (aa 1–288); read-out: IC50", "value": 1.3, "unit": "µM"}]}
